Test results: patent US20150344535A1, “NEUROTROPHIN-TYROSINE KINASE RECEPTOR SIGNALING” (THE UNIVERSITY OF QUEENSLAND, priority 2012, published 2015)

Tests used:
PC12 cells [1] = assay: PC12 cell neurite outgrowth in response to EGF; format: cell-based; conditions: vs no peptide or scrambled peptide
Experimental: To assess the effect of p75^NTR constructs (FIG. 2) or c29 peptide on TrkA-mediated neuritogenesis, transfected PC12 cells were grown in the presence of 100 ng/ml NGF for 3 days, with fresh medium and NGF treatments added on day 2. Cells were then imaged live on an Olympus (IX81) microscope fitted with a CO2 atmospheric chamber, using analySIS software. Four random images of 80-100 cells were taken for each treatment condition and images were determined by measuring polygon neurite length of all cells in each image. Data analysis was performed using Graphpad PRISM.
To determine whether the effect of the c29 peptide on enhancement of neurite outgrowth was NGF and TrkA specific, we repeated the experiment using EGF to stimulate differentiation.

PC12 cells [2] = assay: PC12 cell viability / NGF withdrawal (acid phosphatase assay); format: cell-based
Experimental: To investigate the role of c29 peptide in NGF-withdrawal assays, NGF-containing medium in PC12 cultures was exchanged for NGF-free medium on day 3, and cells were treated with c29 or scrambled peptide and reduced NGF concentrations (1 ng or 10 ng/ml). Treated cells were cultured for 2 days and cell viability was determined via quantification of cytosolic acid phosphatase enzyme activity as described in (Yang et al., 1996).
Briefly, cells were grown in 96-well plates at densities of 5000 cells per well. The culture medium in treated cell assays was removed from and each well was washed once with 200 μl phosphate buffered saline (PBS, pH 7.2). To each well, 100 μl of sodium acetate and p-nitrophenyl phosphate buffer containing 0.1 M sodium acetate (pH 5.0), 0.1% Triton X-100, and 5 mM p-nitrophenyl phosphate was added. The plates were placed in a 37° C. incubator for 30 minutes. The reaction was stopped with the addition of […] of 1 N NaOH, and colour development absorbance was assayed at 405 nm using a microplate reader (POLARstar OPTIMA, USA). […] This background value was typically 0.03-0.1 absorbance units.

pErk1/2 and pAkt = assay: Western blot of pErk1/2 and pAkt in PC12 cell lysates; format: cell-based; conditions: 24 hours
Experimental: In biochemical experiments, PC12 and HEK293 cells were lysed for 20 minutes on ice in lysis buffer as described by (Ceni et al., 2010). Briefly, the lysis buffer contained 10 mM Tris-HCl, 150 mM NaCl, 2 mM EDTA, 1% (v/v) NP-40, 1% (v/v) TX-100, 10% Glycerol, 1 mM PMSF, 1 mM Sodium Orthovanadate, 1 μM BB94, 1% (v/v) Roche protease inhibitor cocktail and pH 8.0 (Ceni et al., 2010).
Immunoprecipitation was performed by the addition of 75 μl (1:2) protein-G sepharose: PBS and incubation end-over-end for 16 hours at 4° C. The immunoprecipitate was washed 4 times with 1 ml of PBS then eluted in 60 μl 2×LDS sample buffer. For immunoblotting, samples were boiled for 5 minutes, separated by SDS-PAGE and transferred onto nitrocellulose membranes, then western blotted using standard protocols (see Example 1 for antibodies used).
The observed functional effects on neurite outgrowth and survival were next correlated with enhanced activation of signal transduction pathways that mediate the trophic effects of TrkA. Lysates of cells treated for 24 hours with NGF alone or in combination with c29 or scrambled peptide were immunoblotted for pErk1/2 (neurite outgrowth), and the serine/threonine protein kinase Akt (survival). […] Total levels of Erk1/2 or Akt were unaffected by any treatment (FIG. 6 A, B).

TrkB = biological target: T1, TrkB (Mus musculus, UniProt P15209); assay: Biotinylated peptide pull down of TrkB from NSC-34 cells; format: binding; conditions: NSC-34 cell lysate, FIG. 4D
T1 construct: endogenous in cells; host or cells: NSC-34
T1 sequence (P15209 32-476 isoform P15209-2 limits assumed): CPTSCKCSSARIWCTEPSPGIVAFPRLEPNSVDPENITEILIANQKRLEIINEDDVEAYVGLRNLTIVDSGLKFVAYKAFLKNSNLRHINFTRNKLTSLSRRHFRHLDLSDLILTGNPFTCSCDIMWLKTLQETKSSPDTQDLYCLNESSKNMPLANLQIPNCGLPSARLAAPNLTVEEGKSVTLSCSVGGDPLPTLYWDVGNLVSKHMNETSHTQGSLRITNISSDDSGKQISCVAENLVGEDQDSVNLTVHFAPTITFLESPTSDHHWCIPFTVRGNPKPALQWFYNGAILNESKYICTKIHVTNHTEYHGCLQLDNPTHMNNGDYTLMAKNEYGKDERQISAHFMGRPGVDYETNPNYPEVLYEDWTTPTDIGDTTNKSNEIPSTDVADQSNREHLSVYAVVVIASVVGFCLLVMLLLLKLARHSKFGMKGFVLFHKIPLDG
Experimental: (§1) For peptide pull down assays, the biotinylated c29 or LC1 control peptides were incubated with protein A-sepharose beads or Dynabeads MyOne Streptavidin T1 (Invitrogen) overnight at 4° C. Cell lysates were then added to the peptide-protein A-sepharose complex or Dynabeads MyOne Streptavidin T1 and incubated for 3 hours at 4° C. Peptide-receptor complexes were washed extensively with RIPA lysis buffer and eluted by boiling in Laemmli sample buffer. For p75^NTR construct immunoprecipitations, HEK293 cells were treated with NGF at 50 ng/ml for 10 minutes 48 hours after transfection with 1 μg DNA per well. Cells were immediately harvested in ice-cold phosphate buffered saline (PBS) and washed twice, then lysed in 1 ml of lysis buffer. Cell lysates were pre-cleared in 75 μl (1:2) protein-G sepharose: PBS by rotation end-over-end for 2 hours at 4′C. Lysates were then incubated with 3-5 μg antibody, either mouse-anti-YFP/GFP (Roche) or rabbit-anti-human p75^NTR intracellular domain antibody (Promega), and rotated end-over-end for 2 hours at 4° C.
(§2) Immunoprecipitation was performed by the addition of 75 μl (1:2) protein-G sepharose: PBS and incubation end-over-end for 16 hours at 4° C. The immunoprecipitate was washed 4 times with 1 ml of PBS then eluted in 60 μl 2×LDS sample buffer. […]

EGF receptor = biological target: T2, EGF receptor (Homo sapiens, UniProt P00533); assay: Biotinylated peptide pull down of EGF receptor; format: binding; conditions: lysate of transfected HEK293 cells, FIG. 4D
T2 construct: GFP; expressed in transfected cells; host or cells: HEK293
Experimental: as §1, §2

p75^FL = assay: Production of endogenous p75^CTF or p75^ICD fragments in p75^FL-transfected HEK293 cells; format: cell-based; conditions: vs untreated cells, data not shown
[3] = 10 ng/ml NGF, relative to 10 ng/ml NGF and scrambled peptide

KRWNSCKQNKQGANSRPVNQTPPPEGEKL (c29- Fragment of p75ICD) [29 amino acid peptide of the p75NTR juxtamembrane Chopper domain; delivered to cells linked to PTD4 or disulfide-linked carrier]
neuritogenesis in EGF-treated cultures (PC12 cells [1]): no effect on neuritogenesis
survival rate of cells (PC12 cells [2]; 1 ng/ml NGF after differentiation in 100 ng/ml NGF): significantly increased the survival rate
cell survival (PC12 cells [2]; absence of NGF): did not affect on cell survival
basal PC12 cell growth and proliferation (PC12 cells [2]; medium lacking NGF): no effect on basal PC12 cell growth and proliferation
increase in pAkt (pErk1/2 and pAkt; [3]): 2 fold
increase in pErk1/2 (pErk1/2 and pAkt; [3]): 2 fold
pAkt signalling (pErk1/2 and pAkt; absence of NGF): no effect
pErk1/2 signalling (pErk1/2 and pAkt; absence of NGF): no effect
pull down of endogenously expressed TrkB (TrkB): able to pull down endogenously expressed TrkB
pull down of EGF receptor (EGF receptor): did not pull down
rate of production of endogenous p75^CTF or p75^ICD fragments (p75^FL): did not differ significantly
